Measurements reported in patent US9006487B2, “Amine-containing lipids and uses thereof” (Massachusetts Institute of Technology, priority 2005, dated 2015).
Several values for one entry are separate records, joined by “and”; a condition that tells them apart may be missing. Equal values may be shown once.

Key:
Assay type in all cases: cell-based
[1] = DNA delivery: raw luciferase expression (relative light units) of best-transfecting lipids; conditions: 300 ng of DNA per well
Description: Raw values for luciferase expression (relative lights units) of best-transfecting lipids at lipid/DNA (w/w) ratios listed. 300 ng of DNA was added per well.

cos-7 cells = assay: DNA transfection: luciferase expression relative to Lipofectamine 2000; conditions: for luciferase expression (second part of table, values relative to LIPO2000): 300 ng of DNA per well
How it was run: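 Lipid/DNA complexes, 300 ng luciferase DNA per well at 2.5-25 w/w lipid:DNA, were formed in sodium acetate/Optimem and added to overnight-seeded cos-7 cells. Luciferase was measured by Bright-Glo luminescence after 48 hours and quantified against an enzyme standard curve. Values are expressed as % of Lipofectamine 2000 at 2.5 w/w.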

[2] = tested on: renilla and firefly luciferases; assay: siRNA delivery: reporter-protein (renilla luciferase) knockdown relative to Lipofectamine 2000, firefly luciferase as viability control; conditions: 50 ng of siRNA per well
Description: Reporter-protein knockdown achieved by the top transfecting lipids relative to Lipofectamine™ 2000 (where negative values indicate improved knockdown). The assay accounts for toxicity, monitoring expression of both renilla and firefly luciferases, where the latter serves as viability control. For each lipid, 50 ng of siRNA was added per well at specific lipid/RNA w/w ratios (from top to bottom: 2.5, 5, 10, 15).

[3] = 1st column, no head printed (2.5 w/w by the raw values)
[4] = 2nd column, no head printed (5 w/w by the raw values)
[5] = 3rd column, no head printed (10 w/w by the raw values)
[6] = 4th column, no head printed (15 w/w by the raw values)

Row | SMILES | Raw values for luciferase expression ([1]; lipid/DNA 2.5 w/w) | Raw values for luciferase expression ([1]; lipid/DNA 5 w/w) | luciferase expression (second part of table, values relative to LIPO2000) (cos-7 cells; lipid/DNA 2.5 w/w) | luciferase expression (second part of table, values relative to LIPO2000) (cos-7 cells; lipid/DNA 5 w/w) | luciferase expression (second part of table, values relative to LIPO2000) (cos-7 cells; lipid/DNA 10 w/w) | luciferase expression (second part of table, values relative to LIPO2000) (cos-7 cells; lipid/DNA 15 w/w) | luciferase expression, second set of columns (replicate set of data) (cos-7 cells; [3]) | luciferase expression, second set of columns (replicate set of data) (cos-7 cells; [4]) | luciferase expression, second set of columns (replicate set of data) (cos-7 cells; [5]) | luciferase expression, second set of columns (replicate set of data) (cos-7 cells; [6]) | Reporter-protein knockdown relative to Lipofectamine 2000 (negative values indicate improved knockdown) ([2]; lipid/RNA 2.5 w/w) | Reporter-protein knockdown relative to Lipofectamine 2000 (negative values indicate improved knockdown) ([2]; lipid/RNA 5 w/w) | Reporter-protein knockdown relative to Lipofectamine 2000 (negative values indicate improved knockdown) ([2]; lipid/RNA 10 w/w) | Reporter-protein knockdown relative to Lipofectamine 2000 (negative values indicate improved knockdown) ([2]; lipid/RNA 15 w/w) | Raw values for luciferase expression ([1]; lipid/DNA 10 w/w) [relative lights units] | Raw values for luciferase expression ([1]; lipid/DNA 15 w/w) [relative lights units] | luciferase expression (second part of table, values relative to LIPO2000) (cos-7 cells; lipid/DNA 20 w/w) | luciferase expression (second part of table, values relative to LIPO2000) (cos-7 cells; lipid/DNA 25 w/w)
1 | CCCCCCCCCCCCNC(=O)CCN(CCC(=O)NCCCCCCCCCCCC)CCN(CCC(=O)NCCCCCCCCCCCC)CCC(=O)NCCCCCCCCCCCC [ND99] | 10252260 relative lights units and 11757295 relative lights units | 9886021 relative lights units and 7656193 relative lights units | 16.8 | 36.5 | 78.6 | 91.7 | 132.7 | 97.5 | 6.8 | 2.2 | −10.1961 | −9.86 | −18.2728 | −20.0273 | – | – | – | –
2 | CCCCCCCCCCCCCCNC(=O)CCN(C)CCCN(CCC(=O)NCCCCCCCCCCCCCC)CCC(=O)NCCCCCCCCCCCCCC [NF96] | – | – | 221.5 | 44.3 | 0.2 | 0.1 | 79.4 | 40.8 | 29.2 | 2.4 | −6.262 | −2.035 | 63.2 | 90.8142 | 2048655 | 167043 | – | –
3 | CCCCCCCCCCCCNC(=O)CCN(C)CCN(CCC(=O)NCCCCCCCCCCCC)CCC(=O)NCCCCCCCCCCCC [ND95] | 2875811 relative lights units | 4619654 relative lights units | 11.3 | 30.9 | 37.6 | 53.4 | – | – | – | – | 19.8058 | 8.319 | −5.205 | −7.163 | 7977064 | 10279185 | 37.8 | 54.0
4 | CCCCCCCCCCCCNC(=O)CCN(CCC(=O)NCCCCCCCCCCCC)CCN(CCC(=O)NCCCCCCCCCCCC)CCN(CCC(=O)NCCCCCCCCCCCC)CCN(CCC(=O)NCCCCCCCCCCCC)CCC(=O)NCCCCCCCCCCCC [ND98] | 5649897 relative lights units and 6947385 relative lights units | – | 22.2 | 5.3 | 0.5 | 0.4 | 78.4 | 65.8 | 26.0 | 9.2 | −4.005 | −4.482 | −4.634 | −13.9514 | 1824773 | 643862 | 0.4 | 0.3
5 | CCCCCCCCCCCCCCCNC(=O)CCN(CC)CCCN(CC)CCC(=O)NCCCCCCCCCCCCCCC [NG64] | 2585784 relative lights units | 1972838 relative lights units | – | – | – | – | – | – | – | – | −11.7697 | −34.6712 | 3.073 | 1.439 | – | – | – | –
